Experiments:
CYLD = CYLD (Homo sapiens (Human), UniProt Q9NQC7); assay: DUB selectivity panel using ubiquitin-AMC; type: biochemical; conditions: 5 μM compound, 500 nM Ubiquitin-AMC
Text: (§1) Compounds were screened for DUB inhibitory and apoptotic activity against other deubiquitylases in a DUB selectivity panel using ubiquitin-AMC (BPS Bioscience Inc.).

USP30 = USP30 (Homo sapiens (Human), UniProt Q70CQ3); assay: DUB selectivity panel using ubiquitin-AMC; type: biochemical; conditions: 5 μM compound, 500 nM Ubiquitin-AMC
Text: as §1

UCH-L3 = UCH-L3 (Homo sapiens (Human), UniProt P15374); assay: DUB selectivity panel using ubiquitin-AMC; type: biochemical; conditions: 5 μM compound, 500 nM Ubiquitin-AMC
Chain of UCH-L3 (P15374 whole entry): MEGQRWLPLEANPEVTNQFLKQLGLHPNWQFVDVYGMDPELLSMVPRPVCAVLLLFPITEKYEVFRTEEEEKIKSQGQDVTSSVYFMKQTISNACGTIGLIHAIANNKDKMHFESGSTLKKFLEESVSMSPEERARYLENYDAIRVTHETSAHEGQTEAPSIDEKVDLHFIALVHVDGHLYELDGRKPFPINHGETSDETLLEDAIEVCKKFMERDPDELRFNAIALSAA
Text: as §1

USP25 = USP25 (Homo sapiens (Human), UniProt Q9UHP3); assay: DUB selectivity panel using ubiquitin-AMC; type: biochemical; conditions: 5 μM compound, 500 nM Ubiquitin-AMC
Chain of USP25 (Q9UHP3 whole entry): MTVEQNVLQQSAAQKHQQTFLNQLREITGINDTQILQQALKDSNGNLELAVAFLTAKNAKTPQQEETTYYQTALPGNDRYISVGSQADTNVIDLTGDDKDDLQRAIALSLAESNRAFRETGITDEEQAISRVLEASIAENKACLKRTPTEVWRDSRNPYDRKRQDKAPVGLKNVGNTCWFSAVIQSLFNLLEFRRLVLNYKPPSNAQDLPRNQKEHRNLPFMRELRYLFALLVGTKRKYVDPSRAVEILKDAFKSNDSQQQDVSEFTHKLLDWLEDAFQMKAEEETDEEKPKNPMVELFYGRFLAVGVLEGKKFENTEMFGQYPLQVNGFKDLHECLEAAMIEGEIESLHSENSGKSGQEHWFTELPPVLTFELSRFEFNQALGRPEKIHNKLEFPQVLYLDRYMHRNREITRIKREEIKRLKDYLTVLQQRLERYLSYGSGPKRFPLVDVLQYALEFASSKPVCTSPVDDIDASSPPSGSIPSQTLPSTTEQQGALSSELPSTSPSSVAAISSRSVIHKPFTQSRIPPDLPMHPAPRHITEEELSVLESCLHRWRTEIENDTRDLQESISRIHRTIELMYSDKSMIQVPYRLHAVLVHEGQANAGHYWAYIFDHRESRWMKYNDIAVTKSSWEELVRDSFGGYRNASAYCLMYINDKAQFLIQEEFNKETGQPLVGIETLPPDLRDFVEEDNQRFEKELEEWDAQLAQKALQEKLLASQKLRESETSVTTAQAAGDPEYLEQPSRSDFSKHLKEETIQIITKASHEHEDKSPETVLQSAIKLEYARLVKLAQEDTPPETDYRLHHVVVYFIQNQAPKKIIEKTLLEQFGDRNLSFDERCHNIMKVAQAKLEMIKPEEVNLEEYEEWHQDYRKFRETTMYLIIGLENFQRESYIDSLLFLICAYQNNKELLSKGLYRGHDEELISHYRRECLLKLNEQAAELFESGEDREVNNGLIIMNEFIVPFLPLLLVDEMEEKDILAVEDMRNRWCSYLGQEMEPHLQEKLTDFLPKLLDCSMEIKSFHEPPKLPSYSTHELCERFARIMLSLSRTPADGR
Text: as §1

USP15 = USP15 (Homo sapiens (Human), UniProt Q9Y4E8); assay: DUB selectivity panel using ubiquitin-AMC; type: biochemical; conditions: 5 μM compound, 500 nM Ubiquitin-AMC
Text: as §1

USP2 = USP2 (Homo sapiens (Human), UniProt O75604); assay: DUB selectivity panel using ubiquitin-AMC; type: biochemical
Chain of USP2 (O75604 whole entry): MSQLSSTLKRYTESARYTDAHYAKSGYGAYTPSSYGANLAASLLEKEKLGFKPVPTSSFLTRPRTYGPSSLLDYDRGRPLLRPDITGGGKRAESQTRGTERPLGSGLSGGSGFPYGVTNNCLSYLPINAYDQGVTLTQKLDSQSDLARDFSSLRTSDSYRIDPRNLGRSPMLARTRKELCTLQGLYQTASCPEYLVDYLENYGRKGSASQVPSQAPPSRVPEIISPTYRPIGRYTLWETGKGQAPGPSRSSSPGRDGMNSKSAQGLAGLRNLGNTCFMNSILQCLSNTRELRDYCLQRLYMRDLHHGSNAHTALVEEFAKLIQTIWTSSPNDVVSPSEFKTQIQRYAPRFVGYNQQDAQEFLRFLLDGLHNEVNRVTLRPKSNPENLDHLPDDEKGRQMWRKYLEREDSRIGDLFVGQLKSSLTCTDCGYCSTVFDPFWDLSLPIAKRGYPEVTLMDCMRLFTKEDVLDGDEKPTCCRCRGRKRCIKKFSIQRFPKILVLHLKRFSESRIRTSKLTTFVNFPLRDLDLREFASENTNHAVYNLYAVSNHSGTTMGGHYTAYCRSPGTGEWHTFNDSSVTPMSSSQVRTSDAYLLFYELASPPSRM
Text: as §1

USP10 = USP10 (Homo sapiens (Human), UniProt Q14694); assay: DUB selectivity panel using ubiquitin-AMC; type: biochemical; conditions: 5 μM compound, 500 nM Ubiquitin-AMC
Text: as §1

USP7 = USP7 (Homo sapiens (Human), UniProt Q93009); assay: DUB selectivity panel using ubiquitin-AMC; type: biochemical
Chain of USP7 (Q93009 whole entry): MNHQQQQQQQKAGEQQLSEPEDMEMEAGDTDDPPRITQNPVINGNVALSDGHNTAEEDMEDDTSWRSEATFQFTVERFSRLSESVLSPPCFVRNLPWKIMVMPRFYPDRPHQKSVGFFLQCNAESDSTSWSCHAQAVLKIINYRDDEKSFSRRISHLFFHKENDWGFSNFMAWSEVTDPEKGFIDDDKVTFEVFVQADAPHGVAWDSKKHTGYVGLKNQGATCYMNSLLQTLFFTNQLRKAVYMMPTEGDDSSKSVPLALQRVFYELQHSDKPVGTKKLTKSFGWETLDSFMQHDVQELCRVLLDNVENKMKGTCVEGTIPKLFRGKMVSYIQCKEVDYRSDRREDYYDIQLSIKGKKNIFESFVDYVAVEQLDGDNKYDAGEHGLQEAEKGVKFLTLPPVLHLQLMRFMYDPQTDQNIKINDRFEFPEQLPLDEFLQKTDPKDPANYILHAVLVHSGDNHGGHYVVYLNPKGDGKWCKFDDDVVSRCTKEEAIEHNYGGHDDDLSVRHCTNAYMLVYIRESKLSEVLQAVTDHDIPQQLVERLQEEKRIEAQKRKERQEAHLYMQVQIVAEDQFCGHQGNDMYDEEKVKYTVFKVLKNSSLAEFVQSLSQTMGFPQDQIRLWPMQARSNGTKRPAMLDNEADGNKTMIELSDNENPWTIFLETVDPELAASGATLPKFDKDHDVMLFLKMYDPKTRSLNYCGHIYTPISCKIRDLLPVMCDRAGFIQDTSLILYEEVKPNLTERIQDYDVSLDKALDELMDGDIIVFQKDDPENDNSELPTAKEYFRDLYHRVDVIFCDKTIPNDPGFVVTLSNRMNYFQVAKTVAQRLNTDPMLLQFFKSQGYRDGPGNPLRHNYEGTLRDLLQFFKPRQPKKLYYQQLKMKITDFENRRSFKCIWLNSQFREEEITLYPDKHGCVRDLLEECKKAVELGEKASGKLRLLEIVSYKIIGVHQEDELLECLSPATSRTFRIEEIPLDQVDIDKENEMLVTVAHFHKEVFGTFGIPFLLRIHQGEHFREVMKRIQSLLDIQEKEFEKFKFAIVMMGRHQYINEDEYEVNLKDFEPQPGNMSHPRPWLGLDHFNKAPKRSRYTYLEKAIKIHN
Text: as §1

USP13 = USP13 (Homo sapiens (Human), UniProt Q92995); assay: DUB selectivity panel using ubiquitin-AMC; type: biochemical; conditions: 5 μM compound, 500 nM Ubiquitin-AMC
Text: as §1

VCPIP = VCPIP (Homo sapiens (Human), UniProt Q96JH7); assay: DUB selectivity panel using ubiquitin-AMC; type: biochemical; conditions: 5 μM compound, 500 nM Ubiquitin-AMC
Text: as §1

USP5 = USP5 (Homo sapiens (Human), UniProt P45974); assay: DUB selectivity panel using ubiquitin-AMC; type: biochemical; conditions: 5 μM compound, 500 nM Ubiquitin-AMC
Chain of USP5 (P45974 whole entry): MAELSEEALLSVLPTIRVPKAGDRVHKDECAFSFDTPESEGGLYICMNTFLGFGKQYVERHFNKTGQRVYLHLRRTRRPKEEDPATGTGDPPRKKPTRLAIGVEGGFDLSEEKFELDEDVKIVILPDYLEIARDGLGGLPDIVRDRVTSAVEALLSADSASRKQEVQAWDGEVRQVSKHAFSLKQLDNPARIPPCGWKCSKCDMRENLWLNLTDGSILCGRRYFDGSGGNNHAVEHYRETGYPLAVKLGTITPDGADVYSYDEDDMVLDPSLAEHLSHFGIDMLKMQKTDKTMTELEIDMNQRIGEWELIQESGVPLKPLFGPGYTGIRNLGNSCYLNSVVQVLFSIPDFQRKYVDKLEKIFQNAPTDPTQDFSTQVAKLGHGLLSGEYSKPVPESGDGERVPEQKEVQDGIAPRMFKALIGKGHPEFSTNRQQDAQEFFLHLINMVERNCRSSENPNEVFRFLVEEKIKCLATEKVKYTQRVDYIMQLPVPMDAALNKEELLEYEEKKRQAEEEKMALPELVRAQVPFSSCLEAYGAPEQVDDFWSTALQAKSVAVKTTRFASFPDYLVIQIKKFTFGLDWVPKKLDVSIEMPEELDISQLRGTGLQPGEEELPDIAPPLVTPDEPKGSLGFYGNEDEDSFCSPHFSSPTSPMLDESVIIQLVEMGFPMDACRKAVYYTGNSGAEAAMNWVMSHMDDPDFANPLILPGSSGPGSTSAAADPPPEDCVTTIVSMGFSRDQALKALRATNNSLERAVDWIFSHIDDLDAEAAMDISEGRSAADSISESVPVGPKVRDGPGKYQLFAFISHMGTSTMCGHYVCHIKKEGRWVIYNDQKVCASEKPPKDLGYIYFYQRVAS
Text: as §1

USP28 = USP28 (Homo sapiens (Human), UniProt Q96RU2); assay: DUB selectivity panel using ubiquitin-AMC; type: biochemical
Text: as §1

BT-549 cancer cells = assay: WST-1 cell viability assay; type: cell-based, human; conditions: BT-549 cells
Protocol: Compound Compound 9A was tested for the ability to inhibit the proliferation of Mia-Paca-2 pancreatic cancer cells. Mia-Paca-2 and MDA-MB-231 cells were seeded into the wells of a 96 well tissue culture plate in complete medium (10% fetal calf serum) and incubated overnight at 37° C./5% CO2). The medium was exchanged for fresh medium containing varying concentrations of Compound 9A and the plate was incubated for 72 hours at 37° C./5% CO2. The viability of cells at the end of this incubation was assessed with the WST-1 reagent. To 10 ml of warm (37° C.) complete medium, 1 ml WST-1 reagent was added. The medium from the wells of the plate with the Mia-Paca-2 cells was removed and replaced with 100 μL of the WST-1 reagent in complete medium. The plate was incubated at 37 37° C./5% CO2. At timed intervals the absorbance at 450 nm was determined for each well in a UVNis plate reader. For each well the slope of the plot of the absorbance 450 nm vs time was determined. The readings were normalized to that of the wells for the untreated control and a dose-response curve was plotted. A fit to the data was made from a four parameter, variable slope program (GraphPad Prism) and the IC50 was determined.
The same procedures were also applied to the compounds Compound 7A, Compound 6A, and Compound 8A to test their inhibitory activities against RKO colon, Mia-Paca-2 pancreatic and BT-549 cancer cells.

Jurkat E6.1 = assay: ONCOLINES Profiler proliferation; type: cell-based; conditions: Homo sapiens; Jurkat E6.1, T cell leukemia
Text: (§2) The compounds were profiled on an ONCOLINES™ Profiler (Netherlands Translational Research Center) assayed with 66 cancer cell lines to determine if they were capable of inhibiting the proliferation of these cancer cells.

Daoy = assay: ONCOLINES Profiler proliferation; type: cell-based; conditions: Homo sapiens, medulloblastoma
Text: as §2

[1] = tested on: malignant melanoma cell line MWo; assay: ONCOLINES Profiler proliferation; type: cell-based
Text: as §2

AN3 CA = assay: ONCOLINES Profiler proliferation; type: cell-based; conditions: Homo sapiens, endometrium adenocarcinoma
Text: as §2

NCI-H460 = assay: ONCOLINES Profiler proliferation; type: cell-based; conditions: Homo sapiens; NCI-H460, large cell lung carcinoma
Text: as §2

HCT-116 = assay: ONCOLINES Profiler proliferation; type: cell-based; conditions: Homo sapiens; HCT-116, colon carcinoma
Text: as §2

A-204 = assay: ONCOLINES Profiler proliferation; type: cell-based; conditions: Homo sapiens, A204; A-204, rhabdomyosarcoma
Text: as §2

OVCAR-3 = assay: ONCOLINES Profiler proliferation; type: cell-based; conditions: Homo sapiens; OVCAR-3, ovary adenocarcinoma
Text: as §2

PA-1 = assay: ONCOLINES Profiler proliferation; type: cell-based; conditions: Homo sapiens; PA-1, ovary teratocarcinoma
Text: as §2

DoTc2 4510 = assay: ONCOLINES Profiler proliferation; type: cell-based; conditions: Homo sapiens; DoTc2 4510, cervix carcinoma
Text: as §2

SK-N-AS = assay: ONCOLINES Profiler proliferation; type: cell-based; conditions: Homo sapiens, neuroblastoma
Text: as §2

A388 = assay: ONCOLINES Profiler proliferation; type: cell-based; conditions: A388, epidermal carcinoma
Text: as §2

SR = assay: ONCOLINES Profiler proliferation; type: cell-based; conditions: Homo sapiens, large cell immunoblastic lymphoma
Text: as §2

K-562 = assay: ONCOLINES Profiler proliferation; type: cell-based; conditions: Homo sapiens, K562; K-562, CML
Text: as §2

SUP-T1 = assay: ONCOLINES Profiler proliferation; type: cell-based; conditions: Homo sapiens; SUP-T1, T-cell lymphoblastic lymphoma
Text: as §2

VA-ES-BJ = assay: ONCOLINES Profiler proliferation; type: cell-based; conditions: epithelioid carcinoma, bone
Text: as §2

A375 = assay: ONCOLINES Profiler proliferation; type: cell-based; conditions: Homo sapiens, A-375; A375, malignant melanoma
Text: as §2

MIA PaCa-2 = assay: ONCOLINES Profiler proliferation; type: cell-based; conditions: Homo sapiens; MIA PaCa-2, pancreatic ductal carcinoma
Text: as §2

[2] = 5 μM compound, 500 nM Ubiquitin-AMC

Chain of CYLD (Q9NQC7 whole entry): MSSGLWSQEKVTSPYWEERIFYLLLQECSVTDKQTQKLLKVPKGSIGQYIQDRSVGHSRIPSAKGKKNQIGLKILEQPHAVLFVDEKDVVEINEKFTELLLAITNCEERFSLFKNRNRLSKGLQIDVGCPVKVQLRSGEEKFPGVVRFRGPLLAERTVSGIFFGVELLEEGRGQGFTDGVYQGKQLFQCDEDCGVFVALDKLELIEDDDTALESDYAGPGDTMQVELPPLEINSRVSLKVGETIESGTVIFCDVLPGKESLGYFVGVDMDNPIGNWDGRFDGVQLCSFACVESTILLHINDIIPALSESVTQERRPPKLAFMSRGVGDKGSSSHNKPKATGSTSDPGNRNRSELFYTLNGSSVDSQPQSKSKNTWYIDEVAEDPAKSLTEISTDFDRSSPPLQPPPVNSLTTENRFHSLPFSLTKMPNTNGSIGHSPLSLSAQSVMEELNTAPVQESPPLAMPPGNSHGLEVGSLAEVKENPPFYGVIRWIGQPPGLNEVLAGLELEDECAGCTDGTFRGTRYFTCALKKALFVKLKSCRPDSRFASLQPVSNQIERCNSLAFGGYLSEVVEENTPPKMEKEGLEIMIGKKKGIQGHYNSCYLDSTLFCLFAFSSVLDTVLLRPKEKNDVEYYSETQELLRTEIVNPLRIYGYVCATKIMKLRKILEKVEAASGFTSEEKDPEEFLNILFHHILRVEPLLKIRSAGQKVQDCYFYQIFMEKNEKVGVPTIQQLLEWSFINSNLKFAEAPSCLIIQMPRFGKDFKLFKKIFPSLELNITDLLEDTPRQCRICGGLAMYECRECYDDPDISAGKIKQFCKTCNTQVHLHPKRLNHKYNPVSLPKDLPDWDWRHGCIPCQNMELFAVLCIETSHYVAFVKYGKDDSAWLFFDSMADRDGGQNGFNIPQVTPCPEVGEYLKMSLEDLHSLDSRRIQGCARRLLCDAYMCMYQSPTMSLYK

CN1CCOc2ccc(cc2)C(=O)NCc2cccc(c2)C(=O)N[C@@H](CC(C)(C)C)C(=O)Nc2ccc(cc2)CCN(C)C(=O)CC(C)(C)CC1=O [Compound 5A]
inhibition at 5 µM (CYLD): 0% | inhibition of CYLD (CYLD): no detectable effect | inhibition at 5 µM (USP30): < 5% | inhibition at 5 µM (UCH-L3): 0% | inhibition of UCH-L3 (UCH-L3): no detectable effect | inhibition at 5 µM (USP25): 0% | inhibition of USP25 (USP25): no detectable effect | inhibition at 5 µM (USP15): < 2% | IC50 (USP2): > 50000 nM | inhibition at 5 µM (USP2; [2]): 0% | inhibition of USP2 (USP2; [2]): no detectable effect | inhibition at 5 µM (USP10): < 1% | IC50 (USP7): > 50000 nM | inhibition at 5 µM (USP7; [2]): 0% | inhibition of USP7 (USP7; [2]): no detectable effect | inhibition at 5 µM (USP13): 0% | inhibition of USP13 (USP13): no detectable effect | inhibition at 5 µM (VCPIP): < 3% | inhibition at 5 µM (USP5): 0% | inhibition of USP5 (USP5): no detectable effect | IC50 (USP28): 15000 nM

CN1CCOc2ccc(cc2)C(=O)NCc2ccc(F)c(c2)C(=O)N[C@@H](CC(C)(C)C)C(=O)Nc2ccc(cc2)CCN(C)C(=O)CC(C)(C)CC1=O [Compound 7A]
cell viability (BT-549 cancer cells): significant decreases | IC50 (Jurkat E6.1): 548 nM | IC50 (Daoy): 3380 nM | IC50 [1]: > 32000 nM | IC50 (AN3 CA): 660 nM | IC50 (NCI-H460): 2090 nM | IC50 (HCT-116): 2390 nM | IC50 (A-204): 1360 nM | IC50 (OVCAR-3): 2400 nM | IC50 (PA-1): 2070 nM | IC50 (DoTc2 4510): 963 nM | IC50 (SK-N-AS): 1720 nM | IC50 (A388): 2390 nM | IC50 (SR): 1580 nM | IC50 (K-562): 486 nM | IC50 (SUP-T1): 4290 nM | IC50 (VA-ES-BJ): 682 nM | IC50 (A375): 2020 nM | IC50 (MIA PaCa-2): 790 nM

Source: patent US20240294467A1, “USP9X Inhibitors” (ProDeg, LLC, priority 2021, published 2024)
